System: Iba-1
Test: Iba-1 expression in VM-M3 brain tumour tissue (immunohistochemistry, western blot)
Type: in vivo, mouse (VM/Dk)
Settings: DON treated brain tumour tissue; immunohistochemistry and western blot
Experimental: FIGS. 6A-6C. Restricted Ketogenic diet with DON reduces the Iba-1 expression in the VM-M3 brain tumour tissue. Immunohistochemistry (IHC) of Iba-1 was performed in formalin fixed brain tissues as described in Methods. […] Western blot analysis of Iba-1 protein expression in the tumours indicates a decrease in the expression of Iba-1 in the DON treated tumours (n=3 mouse tumour brain tissue) in comparison to SD-UR (n=3 mouse tumour brain tissue). A decrease in expression was also seen for KD-R mice (n=2 mouse tumour brain tissue). Normal brain (NB) was used as a negative control tissue, FIGS. 6B and 6C.
Iba-1 protein expression was analyzed in the VM-M3 brain tumour tissue by immunohistochemistry and western blot. Iba-1 was heavily expressed in VM-M3 tumour and normal microglia/macrophages, as we described previously^37. The KD-R reduced the expression of Iba-1 as shown in both immunohistochemistry and western blot (FIGS. 6A and 6B). […]
Approximately 100 μg of total protein from each tissue sample was denatured with SDS-PAGE sample buffer [63 mmol/L Tris-HCl (pH 6.8), 10% glycerol, 2% SDS, 0.0025% bromphenol blue, and 5% 2-mercaptoethanol] and was resolved by SDS-PAGE on 4% to 12% Bis-Tris gels (Invitrogen). […] Each membrane was stripped and reprobed for β-actin as an internal loading control and the ratio of the Iba-1 to β-actin was analyzed by scanning densitometry (FluorChem 8900 Software).

[N-]=[N+]=CC(=O)CC[C@H](N)C(=O)O [DON, 6-diazo-5-oxo-L-norleucine]
Iba-1 expression: significant reduction
